Data taken from ChEMBL document CHEMBL1201862, “PubChem BioAssay data set” (2004).
The source made the active and inactive calls.

What was measured:
[1] = target: Intestinal-type alkaline phosphatase (Mus musculus, UniProt P24822); experiment: PubChem AID 488785; type: functional
[2] = target: T1, Histone-lysine N-methyltransferase NSD2 (Homo sapiens, UniProt O96028); type: biochemical
T1 sequence (O96028 whole entry): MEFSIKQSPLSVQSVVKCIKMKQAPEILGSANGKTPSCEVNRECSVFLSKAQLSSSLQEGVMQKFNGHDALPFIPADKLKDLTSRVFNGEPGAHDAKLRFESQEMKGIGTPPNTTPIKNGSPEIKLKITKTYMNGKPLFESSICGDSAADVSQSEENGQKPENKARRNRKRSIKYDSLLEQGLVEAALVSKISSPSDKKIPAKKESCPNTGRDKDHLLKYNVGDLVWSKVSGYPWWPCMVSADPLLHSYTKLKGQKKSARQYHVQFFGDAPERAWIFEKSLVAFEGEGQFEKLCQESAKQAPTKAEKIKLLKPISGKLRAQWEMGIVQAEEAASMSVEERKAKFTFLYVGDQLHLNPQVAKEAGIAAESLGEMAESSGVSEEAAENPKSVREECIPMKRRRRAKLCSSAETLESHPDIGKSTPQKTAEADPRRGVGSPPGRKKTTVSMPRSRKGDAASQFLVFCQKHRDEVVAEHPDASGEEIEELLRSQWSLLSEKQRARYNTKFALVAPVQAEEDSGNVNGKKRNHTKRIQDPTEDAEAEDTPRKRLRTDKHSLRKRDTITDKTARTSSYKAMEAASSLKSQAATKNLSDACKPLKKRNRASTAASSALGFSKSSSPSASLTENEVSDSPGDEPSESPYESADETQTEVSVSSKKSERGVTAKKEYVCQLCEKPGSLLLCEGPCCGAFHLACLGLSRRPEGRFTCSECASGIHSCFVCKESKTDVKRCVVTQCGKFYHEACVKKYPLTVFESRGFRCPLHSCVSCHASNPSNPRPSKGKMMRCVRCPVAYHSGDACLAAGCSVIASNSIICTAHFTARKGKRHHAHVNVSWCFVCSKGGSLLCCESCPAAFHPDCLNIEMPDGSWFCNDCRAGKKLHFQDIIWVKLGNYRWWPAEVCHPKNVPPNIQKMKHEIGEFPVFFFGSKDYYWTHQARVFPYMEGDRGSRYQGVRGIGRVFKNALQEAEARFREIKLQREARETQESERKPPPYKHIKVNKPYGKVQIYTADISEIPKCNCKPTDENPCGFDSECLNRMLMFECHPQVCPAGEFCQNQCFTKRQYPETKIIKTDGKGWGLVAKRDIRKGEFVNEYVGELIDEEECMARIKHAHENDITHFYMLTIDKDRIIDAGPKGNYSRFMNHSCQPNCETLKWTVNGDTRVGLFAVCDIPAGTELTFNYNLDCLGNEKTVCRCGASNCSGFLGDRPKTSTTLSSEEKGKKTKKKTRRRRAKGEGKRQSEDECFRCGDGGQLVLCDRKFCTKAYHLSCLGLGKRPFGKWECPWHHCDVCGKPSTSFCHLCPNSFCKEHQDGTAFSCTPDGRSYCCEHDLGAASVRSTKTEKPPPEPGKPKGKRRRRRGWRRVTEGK

[3] = target: T2, Small ubiquitin-related modifier 1 (Homo sapiens, UniProt P63165); experiment: SUMO1 protein interaction blockers, potency – biochemical, fluorescence polarization, uHTS hits, dose response (AID 624382); type: functional; settings: read-out: IC50_Mean
[4] = target: Induced myeloid leukemia cell differentiation protein Mcl-1 (Homo sapiens, UniProt Q07820); type: functional
[5] = target: T3, Small ubiquitin-related modifier 2 (Homo sapiens, UniProt P61956); experiment: SUMO2 binding disruption by SUMO1 hits – biochemical, FRET, human SUMO2, uHTS hits, selectivity assay for SUMO1 interaction inhibitor project, dose response (AID 624384); type: functional; settings: read-out: IC50_Mean
[6] = target: Intestinal-type alkaline phosphatase (Homo sapiens, UniProt P09923); experiment: activation of human intestinal alkaline phosphatase – biochemical, dose response (AID 488873); type: functional
HeLa = experiment: viability loss in HeLa cells – cell-based, 24 h, cherry-picked samples, cytotoxicity control, dose response (AID 504726); type: functional; settings: Homo sapiens;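 also: potency for cytotoxicity as loss of luminescence signal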
[7] = target: T4, DNA dC->dU-editing enzyme APOBEC-3A (Homo sapiens, UniProt P31941); experiment: SAR analysis of small molecule inhibitors of APOBEC3A DNA Deaminase via a fluorescence-based single-stranded DNA deaminase assay.; type: functional; settings: read-out: IC50_Mean
[8] = target: T2, Small ubiquitin-related modifier 1; experiment: SUMO1 protein-protein binding blockers, potency – biochemical, FRET, dose response (AID 624383); type: functional; settings: read-out: IC50_Mean
ORF 73 = ORF 73 (Human herpesvirus 8, UniProt O40947); experiment: KSHV LANA DNA-binding disruption – biochemical, fluorescence polarization, cherry-picked samples, dose response (AID 504725); set-up: species or system Human gammaherpesvirus 8;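 also: fluorescence polarization of a labeled DNA duplex reporting LANA DNA binding; potency is for inhibitors that block LANA binding to the DNA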
[9] = target: T5, DNA dC->dU-editing enzyme APOBEC-3G (Homo sapiens, UniProt Q9HC16); experiment: SAR analysis of small molecule inhibitors of APOBEC3G DNA Deaminase via a fluorescence-based single-stranded DNA deaminase assay - Set 2.; type: functional; settings: read-out: IC50_Mean
[10] = target: T3, Small ubiquitin-related modifier 2; experiment: disruption of SUMO2 interaction with SIM peptide – biochemical, fluorescence polarization, uHTS hits, selectivity assay for SUMO1 interaction inhibitor project, dose response (AID 624385); type: functional; settings: read-out: IC50_Mean
[11] = target: T5, DNA dC->dU-editing enzyme APOBEC-3G; experiment: inhibition of APOBEC3G ssDNA deamination – biochemical, fluorescence, single-stranded DNA substrate, SAR follow-up (AID 602136); type: functional; settings: read-out: IC50_Mean
[12] = target: T4, DNA dC->dU-editing enzyme APOBEC-3A; experiment: SAR analysis of small molecule inhibitors of APOBEC3A DNA Deaminase via a fluorescence-based single-stranded DNA deaminase assay - Set 2.; type: functional; settings: read-out: IC50_Mean
[13] = target: Eukaryotic translation initiation factor 4E (Mus musculus, UniProt P63073); experiment: blockers of eIF4G binding by eIF4E – biochemical, TR-FRET, dose response (AID 855); type: functional;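 also: potency for disrupting eIF4E binding to eIF4GI seen as loss of FRET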
Large T antigen = Large T antigen (Simian virus 40, UniProt P03070); type: functional, Betapolyomavirus macacae;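 also: Confirmatory-stage PubChem screen for compounds that inhibit SV40 T antigen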
[14] = target: T6, Alkaline phosphatase, tissue-nonspecific isozyme (Homo sapiens, UniProt P05186); experiment: TNAP enzyme inhibition by screening hits, dose response, selectivity assay for mouse IAP inhibitor project, biochemical, human TNAP, uHTS hits (AID 488906); type: functional
T6 sequence (P05186 whole entry): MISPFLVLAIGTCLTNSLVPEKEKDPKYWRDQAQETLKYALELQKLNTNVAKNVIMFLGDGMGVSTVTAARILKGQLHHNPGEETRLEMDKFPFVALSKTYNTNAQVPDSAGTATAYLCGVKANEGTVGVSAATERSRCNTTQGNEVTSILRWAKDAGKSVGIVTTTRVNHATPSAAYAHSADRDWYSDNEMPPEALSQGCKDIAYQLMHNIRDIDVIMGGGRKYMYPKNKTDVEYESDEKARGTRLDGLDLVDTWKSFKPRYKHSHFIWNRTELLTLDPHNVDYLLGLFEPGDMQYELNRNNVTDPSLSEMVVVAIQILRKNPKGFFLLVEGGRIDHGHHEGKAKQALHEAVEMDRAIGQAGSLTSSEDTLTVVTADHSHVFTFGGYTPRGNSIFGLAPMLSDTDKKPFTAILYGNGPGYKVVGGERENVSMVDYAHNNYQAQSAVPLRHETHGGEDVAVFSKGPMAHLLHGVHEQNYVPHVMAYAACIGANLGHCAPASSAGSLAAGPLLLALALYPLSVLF

T4 sequence (P31941 whole entry): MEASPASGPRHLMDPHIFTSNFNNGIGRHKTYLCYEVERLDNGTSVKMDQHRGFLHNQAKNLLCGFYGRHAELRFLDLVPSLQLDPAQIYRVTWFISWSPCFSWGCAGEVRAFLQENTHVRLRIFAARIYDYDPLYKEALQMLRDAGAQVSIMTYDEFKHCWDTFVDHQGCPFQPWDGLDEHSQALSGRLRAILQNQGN
T2 sequence (P63165 whole entry): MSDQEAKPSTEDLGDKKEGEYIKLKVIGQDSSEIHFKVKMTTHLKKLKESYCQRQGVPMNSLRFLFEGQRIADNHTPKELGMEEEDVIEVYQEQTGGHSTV
T3 sequence (P61956 whole entry): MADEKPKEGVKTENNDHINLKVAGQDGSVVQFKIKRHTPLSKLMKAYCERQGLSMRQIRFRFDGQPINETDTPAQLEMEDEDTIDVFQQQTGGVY
T5 sequence (Q9HC16 whole entry): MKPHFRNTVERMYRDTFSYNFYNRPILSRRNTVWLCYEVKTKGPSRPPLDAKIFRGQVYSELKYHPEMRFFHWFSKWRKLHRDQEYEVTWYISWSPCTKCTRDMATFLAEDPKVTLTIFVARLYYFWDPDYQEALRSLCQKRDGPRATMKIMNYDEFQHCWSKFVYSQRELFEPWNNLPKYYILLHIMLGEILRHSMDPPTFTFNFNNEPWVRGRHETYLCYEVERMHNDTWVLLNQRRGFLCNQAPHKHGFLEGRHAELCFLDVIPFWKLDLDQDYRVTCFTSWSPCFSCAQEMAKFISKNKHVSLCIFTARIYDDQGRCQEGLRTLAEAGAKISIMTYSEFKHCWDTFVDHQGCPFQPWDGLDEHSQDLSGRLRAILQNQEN
Eukaryotic translation initiation factor 4E, sequence (P63073 whole entry): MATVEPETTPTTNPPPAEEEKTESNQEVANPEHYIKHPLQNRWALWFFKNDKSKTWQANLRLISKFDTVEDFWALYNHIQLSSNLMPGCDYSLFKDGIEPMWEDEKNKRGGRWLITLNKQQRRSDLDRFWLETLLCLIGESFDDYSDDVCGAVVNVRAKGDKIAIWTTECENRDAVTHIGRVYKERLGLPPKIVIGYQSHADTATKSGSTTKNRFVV
Induced myeloid leukemia cell differentiation protein Mcl-1, sequence (Q07820 whole entry): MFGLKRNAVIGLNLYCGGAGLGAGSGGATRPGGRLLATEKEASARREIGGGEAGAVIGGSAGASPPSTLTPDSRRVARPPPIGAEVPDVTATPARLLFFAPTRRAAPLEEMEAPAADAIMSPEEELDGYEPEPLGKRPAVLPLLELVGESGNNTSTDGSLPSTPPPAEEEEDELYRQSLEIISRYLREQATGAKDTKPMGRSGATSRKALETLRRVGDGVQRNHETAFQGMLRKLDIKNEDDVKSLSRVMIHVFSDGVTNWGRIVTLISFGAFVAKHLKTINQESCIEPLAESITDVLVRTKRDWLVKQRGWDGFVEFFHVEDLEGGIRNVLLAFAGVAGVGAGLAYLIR
Intestinal-type alkaline phosphatase (Homo sapiens, UniProt P09923), sequence (P09923 whole entry): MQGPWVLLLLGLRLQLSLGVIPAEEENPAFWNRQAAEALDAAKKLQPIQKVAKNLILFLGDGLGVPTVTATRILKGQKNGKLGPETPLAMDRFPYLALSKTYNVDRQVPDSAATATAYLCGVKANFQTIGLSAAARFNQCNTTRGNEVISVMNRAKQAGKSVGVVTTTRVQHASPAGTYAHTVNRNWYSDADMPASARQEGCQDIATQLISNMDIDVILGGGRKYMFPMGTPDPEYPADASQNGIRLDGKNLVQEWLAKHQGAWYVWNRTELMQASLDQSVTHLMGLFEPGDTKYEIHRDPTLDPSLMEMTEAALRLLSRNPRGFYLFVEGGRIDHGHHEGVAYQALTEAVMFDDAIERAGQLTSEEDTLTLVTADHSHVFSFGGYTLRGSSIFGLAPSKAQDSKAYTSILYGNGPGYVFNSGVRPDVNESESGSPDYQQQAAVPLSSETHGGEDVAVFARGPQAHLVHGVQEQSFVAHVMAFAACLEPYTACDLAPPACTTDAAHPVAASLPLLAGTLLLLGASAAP
ORF 73, sequence (O40947 whole entry): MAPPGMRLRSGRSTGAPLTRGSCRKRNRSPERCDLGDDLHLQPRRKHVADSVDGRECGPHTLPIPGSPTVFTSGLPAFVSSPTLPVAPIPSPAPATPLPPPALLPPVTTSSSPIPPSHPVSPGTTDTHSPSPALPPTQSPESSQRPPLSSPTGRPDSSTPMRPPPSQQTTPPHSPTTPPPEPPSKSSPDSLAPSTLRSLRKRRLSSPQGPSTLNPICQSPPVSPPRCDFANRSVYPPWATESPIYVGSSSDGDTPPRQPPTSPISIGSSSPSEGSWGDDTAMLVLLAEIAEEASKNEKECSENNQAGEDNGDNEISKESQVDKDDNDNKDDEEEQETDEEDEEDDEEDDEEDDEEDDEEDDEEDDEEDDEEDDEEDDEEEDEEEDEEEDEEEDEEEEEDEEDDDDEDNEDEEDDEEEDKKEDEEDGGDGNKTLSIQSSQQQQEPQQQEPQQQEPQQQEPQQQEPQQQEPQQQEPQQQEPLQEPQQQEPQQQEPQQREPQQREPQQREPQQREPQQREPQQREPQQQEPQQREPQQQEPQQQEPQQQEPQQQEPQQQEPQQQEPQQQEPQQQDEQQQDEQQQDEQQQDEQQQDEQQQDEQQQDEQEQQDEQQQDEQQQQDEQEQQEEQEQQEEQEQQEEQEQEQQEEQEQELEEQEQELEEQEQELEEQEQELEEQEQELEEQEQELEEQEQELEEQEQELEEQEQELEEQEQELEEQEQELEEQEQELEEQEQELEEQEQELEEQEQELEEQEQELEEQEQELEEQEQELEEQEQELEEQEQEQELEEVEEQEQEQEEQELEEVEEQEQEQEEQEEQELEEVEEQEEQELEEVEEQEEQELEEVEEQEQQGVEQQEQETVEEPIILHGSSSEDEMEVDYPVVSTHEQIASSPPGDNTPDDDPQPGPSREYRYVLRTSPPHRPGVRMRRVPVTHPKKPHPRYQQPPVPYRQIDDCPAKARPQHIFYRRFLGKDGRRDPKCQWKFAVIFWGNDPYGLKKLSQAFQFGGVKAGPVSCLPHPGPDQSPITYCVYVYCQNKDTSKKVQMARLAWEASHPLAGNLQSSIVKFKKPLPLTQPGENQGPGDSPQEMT
Large T antigen, sequence (P03070 whole entry): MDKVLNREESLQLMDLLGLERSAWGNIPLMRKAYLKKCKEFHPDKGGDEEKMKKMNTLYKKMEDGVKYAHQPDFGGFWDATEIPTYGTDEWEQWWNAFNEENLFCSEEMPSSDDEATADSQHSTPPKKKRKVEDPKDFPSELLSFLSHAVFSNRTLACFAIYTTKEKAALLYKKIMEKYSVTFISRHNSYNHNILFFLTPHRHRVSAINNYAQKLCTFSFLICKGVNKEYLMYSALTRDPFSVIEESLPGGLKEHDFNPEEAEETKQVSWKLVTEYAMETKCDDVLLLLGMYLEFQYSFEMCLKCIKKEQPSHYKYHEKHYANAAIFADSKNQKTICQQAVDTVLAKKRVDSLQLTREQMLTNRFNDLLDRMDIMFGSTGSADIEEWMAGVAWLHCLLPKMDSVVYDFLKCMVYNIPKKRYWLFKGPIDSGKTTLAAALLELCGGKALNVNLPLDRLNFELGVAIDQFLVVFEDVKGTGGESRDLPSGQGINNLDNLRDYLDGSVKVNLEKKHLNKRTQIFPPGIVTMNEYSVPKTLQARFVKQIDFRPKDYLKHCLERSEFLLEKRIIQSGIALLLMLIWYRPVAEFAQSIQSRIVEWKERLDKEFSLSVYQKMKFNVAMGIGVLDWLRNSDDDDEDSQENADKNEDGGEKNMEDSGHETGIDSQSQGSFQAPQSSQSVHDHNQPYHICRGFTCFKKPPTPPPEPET
Intestinal-type alkaline phosphatase (Mus musculus, UniProt P24822), sequence (P24822 whole entry): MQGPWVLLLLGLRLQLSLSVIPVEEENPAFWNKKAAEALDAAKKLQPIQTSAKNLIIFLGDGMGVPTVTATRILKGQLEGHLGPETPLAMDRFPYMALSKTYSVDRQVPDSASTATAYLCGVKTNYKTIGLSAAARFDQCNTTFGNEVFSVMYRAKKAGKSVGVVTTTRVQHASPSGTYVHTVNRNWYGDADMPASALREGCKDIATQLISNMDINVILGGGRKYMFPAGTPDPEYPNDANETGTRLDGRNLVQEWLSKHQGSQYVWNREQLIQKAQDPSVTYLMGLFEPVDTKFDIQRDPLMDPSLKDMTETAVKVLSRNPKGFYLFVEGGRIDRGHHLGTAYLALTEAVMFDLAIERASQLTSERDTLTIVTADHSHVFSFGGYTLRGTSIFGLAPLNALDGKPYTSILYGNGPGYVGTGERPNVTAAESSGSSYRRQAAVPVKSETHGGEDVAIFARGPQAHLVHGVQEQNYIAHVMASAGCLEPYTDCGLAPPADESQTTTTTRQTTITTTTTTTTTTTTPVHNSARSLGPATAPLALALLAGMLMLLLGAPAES

CC(=O)c1ccc2c(c1)C1C=CCC1C(C(=O)O)N2 (configuration not stated)
active: IC50 [1] 6.61 µM | AC50 [2] 1.45 µM | IC50 [3] 10.9 µM | IC50 [4] 5.11 µM | IC50 [5] 1.45 µM | AC50 (HeLa) 277 µM | IC50 [7] 5.37 µM | IC50 [8] 4.9 µM | AC50 (ORF 73) 15 µM | IC50 [9] 0.989 µM | IC50 [10] 4.87 µM | IC50 [11] 5.03 µM | IC50 [12] 2.32 µM | IC50 (Large T antigen) 50.6 µM | IC50 [14] 78.5 µM
inactive: EC50 [6] > 100 µM | IC50 [13] 50 µM
